Experimental data published in PMC11170206, “A novel fatty acid mimetic with pan-PPAR partial agonist activity inhibits diet-induced obesity and metabolic dysfunction-associated steatotic liver disease” (Molecular Metabolism, 2024).

Experiments:
Format in all cases: cell-based
PPARδ = target: T1, PPARδ (Mus musculus, UniProt P35396); assay: GAL4/UAS-luciferase reporter assay in transfected HEK293 cells, dose-response (partial agonist)
T1 construct: gene Ppard; GAL4-mPPARδ
T1 sequence (P35396 210-440 limits assumed): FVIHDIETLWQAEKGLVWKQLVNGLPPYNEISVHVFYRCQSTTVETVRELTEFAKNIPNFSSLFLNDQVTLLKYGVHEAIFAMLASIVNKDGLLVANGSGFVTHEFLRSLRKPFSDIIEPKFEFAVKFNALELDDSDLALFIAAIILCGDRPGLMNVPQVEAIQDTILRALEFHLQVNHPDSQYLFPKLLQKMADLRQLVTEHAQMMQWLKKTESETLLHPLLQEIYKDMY

PPARγ = target: T2, PPARγ (Mus musculus, UniProt P37238); assay: as above
T2 construct: gene Pparg; GAL4-mPPARγ
T2 sequence (P37238 1-505): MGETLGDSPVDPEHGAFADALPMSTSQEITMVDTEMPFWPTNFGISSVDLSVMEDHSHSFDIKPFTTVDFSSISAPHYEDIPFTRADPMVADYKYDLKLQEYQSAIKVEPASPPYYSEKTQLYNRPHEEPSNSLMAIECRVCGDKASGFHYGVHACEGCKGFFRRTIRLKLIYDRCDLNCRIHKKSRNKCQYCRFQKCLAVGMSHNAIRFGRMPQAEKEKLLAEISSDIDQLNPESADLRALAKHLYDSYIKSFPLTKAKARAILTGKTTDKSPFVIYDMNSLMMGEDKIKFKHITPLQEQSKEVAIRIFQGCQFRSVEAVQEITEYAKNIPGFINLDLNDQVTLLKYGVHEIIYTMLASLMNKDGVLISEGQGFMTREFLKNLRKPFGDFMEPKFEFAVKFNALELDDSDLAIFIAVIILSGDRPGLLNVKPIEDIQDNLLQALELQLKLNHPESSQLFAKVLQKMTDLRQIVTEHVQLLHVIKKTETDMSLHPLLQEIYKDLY

PPARα [1] = target: T3, PPARα (Mus musculus, UniProt P23204); assay: as above
T3 construct: gene Ppara; GAL4-mPPARα
T3 sequence (P23204 1-468): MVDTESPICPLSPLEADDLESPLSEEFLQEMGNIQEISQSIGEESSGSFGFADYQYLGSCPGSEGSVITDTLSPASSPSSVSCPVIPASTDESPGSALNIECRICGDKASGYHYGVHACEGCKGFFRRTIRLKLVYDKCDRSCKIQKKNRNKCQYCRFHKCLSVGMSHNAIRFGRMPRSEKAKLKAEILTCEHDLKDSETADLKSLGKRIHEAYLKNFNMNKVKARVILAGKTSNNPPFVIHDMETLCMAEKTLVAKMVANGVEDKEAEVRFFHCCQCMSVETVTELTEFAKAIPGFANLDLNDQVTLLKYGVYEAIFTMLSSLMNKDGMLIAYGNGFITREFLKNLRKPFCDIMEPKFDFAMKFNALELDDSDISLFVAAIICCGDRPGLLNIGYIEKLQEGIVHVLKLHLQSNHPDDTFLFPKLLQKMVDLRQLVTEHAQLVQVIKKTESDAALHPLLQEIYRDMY

PPARα [2] = target: T3, PPARα; assay: GAL4/UAS-luciferase reporter assay in transfected HEK293 cells, positive control agonist

Compound `CCCCCCCCCCCCCCCc1cccc(OC(C)(C)C(=O)O)c1` [LDT409] has an EC50 (PPARδ) of 1000 nM, an EC50 (PPARγ) of 100 nM and an EC50 (PPARα [1]) of 100 nM.
`Cc1cccc(Nc2cc(Cl)nc(SCC(=O)O)n2)c1C` [WY14643] was tested, and the “GAL4/UAS-luciferase reporter assay in transfected HEK293 cells, positive control” value (PPARα [2]) was “full dose–response curve comparing LDT409 against positive controls for each mouse PPAR (WY, PPARα agonist;”.
